Legend:
Test in all cases: aequorin intracellular calcium assay, inhibition of ACh response
Type in all cases: cell-based
[1] = target: human α3β4α5D nAChR (D398 variant of α5; α3β4α5N carries N398) (Homo sapiens, UniProt P30532+P30926+P32297)
[2] = target: human α3β4 nicotinic acetylcholine receptor (α3β4 nAChR) (Homo sapiens, UniProt P30926+P32297)
[3] = target: human α3β4α5D nAChR (D398 variant of α5; α3β4α5N carries N398) (Homo sapiens, UniProt P30532+P30926+P32297, P30532:D398N)
human α3β4α5D nAChR (D398 variant of α5; α3β4α5N carries N398) (Homo sapiens, UniProt P30532+P30926+P32297, P30532:D398N), sequence (P32297 32-505): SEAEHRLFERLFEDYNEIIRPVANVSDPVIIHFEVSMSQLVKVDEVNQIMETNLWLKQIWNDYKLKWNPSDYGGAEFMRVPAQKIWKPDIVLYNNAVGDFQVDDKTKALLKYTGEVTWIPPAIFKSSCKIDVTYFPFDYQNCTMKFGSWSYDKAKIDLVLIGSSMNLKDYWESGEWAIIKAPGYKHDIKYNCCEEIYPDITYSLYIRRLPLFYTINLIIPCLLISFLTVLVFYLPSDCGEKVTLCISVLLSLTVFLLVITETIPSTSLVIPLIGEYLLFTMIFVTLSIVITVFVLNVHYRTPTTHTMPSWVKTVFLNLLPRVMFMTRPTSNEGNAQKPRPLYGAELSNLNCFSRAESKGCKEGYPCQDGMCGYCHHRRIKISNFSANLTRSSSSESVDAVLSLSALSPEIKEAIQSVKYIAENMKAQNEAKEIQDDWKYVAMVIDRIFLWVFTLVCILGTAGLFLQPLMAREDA
human α3β4α5D nAChR (D398 variant of α5; α3β4α5N carries N398) (Homo sapiens, UniProt P30532+P30926+P32297, P30532:D398N), sequence (P30926 22-498): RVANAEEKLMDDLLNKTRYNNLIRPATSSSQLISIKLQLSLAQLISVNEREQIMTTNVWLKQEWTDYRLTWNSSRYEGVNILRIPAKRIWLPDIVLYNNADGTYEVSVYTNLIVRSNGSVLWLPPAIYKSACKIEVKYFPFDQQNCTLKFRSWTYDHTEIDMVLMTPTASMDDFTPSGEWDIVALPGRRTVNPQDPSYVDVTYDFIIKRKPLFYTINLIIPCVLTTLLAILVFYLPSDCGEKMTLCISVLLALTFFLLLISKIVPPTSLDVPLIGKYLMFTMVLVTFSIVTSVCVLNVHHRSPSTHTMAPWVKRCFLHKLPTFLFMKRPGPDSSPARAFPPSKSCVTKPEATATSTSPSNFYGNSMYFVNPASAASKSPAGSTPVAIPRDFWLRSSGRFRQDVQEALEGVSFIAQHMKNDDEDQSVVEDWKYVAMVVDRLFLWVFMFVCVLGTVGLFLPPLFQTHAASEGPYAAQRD
human α3β4α5D nAChR (D398 variant of α5; α3β4α5N carries N398) (Homo sapiens, UniProt P30532+P30926+P32297, P30532:D398N), sequence (P30532 23-468 D398N): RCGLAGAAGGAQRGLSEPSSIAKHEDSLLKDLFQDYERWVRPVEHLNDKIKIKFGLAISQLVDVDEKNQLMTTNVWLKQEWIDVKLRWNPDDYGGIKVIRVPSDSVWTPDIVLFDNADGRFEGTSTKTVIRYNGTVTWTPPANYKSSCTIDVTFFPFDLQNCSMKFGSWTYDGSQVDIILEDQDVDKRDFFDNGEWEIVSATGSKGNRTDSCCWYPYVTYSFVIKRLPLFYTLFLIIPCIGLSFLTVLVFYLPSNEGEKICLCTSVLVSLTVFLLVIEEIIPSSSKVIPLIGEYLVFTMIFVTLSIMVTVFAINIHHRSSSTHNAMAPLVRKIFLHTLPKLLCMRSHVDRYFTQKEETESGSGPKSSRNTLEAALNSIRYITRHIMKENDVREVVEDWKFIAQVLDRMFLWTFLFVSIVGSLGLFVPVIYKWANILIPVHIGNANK

human α3β4 nicotinic acetylcholine receptor (α3β4 nAChR), sequence (P32297 32-505): as the sequence (P32297 32-505) above
human α3β4 nicotinic acetylcholine receptor (α3β4 nAChR), sequence (P30926 22-498): as the sequence (P30926 22-498) above

SMILES | IC50 [1] [nM] | IC50 [2] [nM] | IC50 [3] [nM]
COc1cc2c3cc1Oc1cc(ccc1O)C[C@@H]1c4c(cc(OC)c(O)c4Oc4ccc(cc4)C[C@@H]3N(C)CC2)CC[N+]1(C)C [D-Tubocurarine] | 940 ± 210 | 1010 ± 240 | 640 ± 150
CCCCCCC(=O)OC1CC(C)(C)NC(C)(C)C1 [TMPH, 2,2,6,6-tetramethylpiperidin-4-yl heptanoate] | 360 ± 20 | 830 ± 100 | 450 ± 40
